Test results reported in patent US20230242494A1, “MALONITRILE DERIVATIVES” (Hoffmann-La Roche Inc., priority 2020, published 2023).

Each compound was assayed against T1, human cGAS (residues 161-522) (Homo sapiens, UniProt Q8N884) (assay: cGAS Activity Assay—Malachite Green). Conditions: recombinant purified human cGAS 25 nM; 80 μM ATP, 80 μM GTP, 100 nM ISD; 4 hour at RT; phosphate detection by Malachite Green.
T1 construct: human cGAS (residues 161-522); made in house
Type: biochemical
Summary of the method: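 Human cGAS (161-522, 25 nM) in 20 mM TRIS pH 7.5, 5 mM MgCl2, 0.01% BSA with 80 μM ATP, 80 μM GTP and 100 nM ISD DNA, 4 h at RT. Pyrophosphate converted by PPase, phosphate read with Malachite Green at 620 nm; IC50 from 4-parameter fit of 16-point series.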

T1 sequence (Q8N884 161-522): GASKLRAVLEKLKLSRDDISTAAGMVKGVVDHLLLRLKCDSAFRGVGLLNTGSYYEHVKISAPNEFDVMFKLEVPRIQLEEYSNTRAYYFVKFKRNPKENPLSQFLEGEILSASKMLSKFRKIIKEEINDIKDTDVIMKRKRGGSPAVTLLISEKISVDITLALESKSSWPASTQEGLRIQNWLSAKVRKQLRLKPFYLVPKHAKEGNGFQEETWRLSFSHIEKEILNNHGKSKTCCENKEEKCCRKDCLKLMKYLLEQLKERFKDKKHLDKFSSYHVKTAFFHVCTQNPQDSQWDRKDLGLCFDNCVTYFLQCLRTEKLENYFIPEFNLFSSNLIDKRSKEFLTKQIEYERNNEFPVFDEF

IC50 [nM] | Structure (SMILES)
370 | CNC(=O)c1ccc(NC(=O)/C(C#N)=C(\O)c2cnoc2C)cc1 [Example 36, 4-[[(Z)-2-cyano-3-hydroxy-3-(5-methylisoxazol-4-yl)prop-2-enoyl]amino]-N-methyl-benzamide]
70 | Cc1oncc1/C(O)=C(\C#N)C(=O)Nc1ncc(S(C)(=O)=O)c(-c2cccc(Cl)c2)n1 [Example 136, (Z)—N-(4-(3-chlorophenyl)-5-(methylsulfonyl)pyrimidin-2-yl)-2-cyano-3-hydroxy-3-(5-methylisoxazol-4-yl)acrylamide]
280 | Cc1oncc1/C(O)=C(\C#N)C(=O)Nc1ncc(C(F)(F)F)cc1Cl [Example 84, (Z)-N-(3-chloro-5-(trifluoromethyl)pyridin-2-yl)-2-cyano-3-hydroxy-3-(5-methylisoxazol-4-yl)acrylamide]
150 | Cc1oncc1/C(O)=C(\C#N)C(=O)Nc1ncc(C(=O)Nc2ccccc2)cn1 [Example 105, 2-[[(Z)-2-cyano-3-hydroxy-3-(5-methylisoxazol-4-yl)prop-2-enoyl]amino]-N-phenyl-pyrimidin-5-carboxamide]
1520 | COC(=O)c1cccc(NC(=O)/C(C#N)=C(\O)c2cnoc2C)c1 [Example 25, methyl 3-[[(Z)-2-cyano-3-hydroxy-3-(5-methylisoxazol-4-yl)prop-2-enoyl]amino]benzoate]
2000 | Cc1oncc1/C(O)=C(\C#N)C(=O)Nc1cccc(C(=O)Nc2ccccc2)c1 [Example 69, (Z)-3-(2-cyano-3-hydroxy-3-(5-methylisoxazol-4-yl)acrylamido)-N-phenylbenzamide]
1900 | Cc1cc(NC(=O)/C(C#N)=C(\O)c2cnoc2C)ccc1C(F)(F)F [Example 75, (Z)-2-cyano-3-hydroxy-N-(3-methyl-4-(trifluoromethyl)phenyl)-3-(5-methylisoxazol-4-yl)acrylamide]
160 | Cc1oncc1/C(O)=C(\C#N)C(=O)Nc1ccc(S(=O)(=O)c2ccccc2)cc1 [Example 30, (Z)-2-cyano-3-hydroxy-3-(5-methylisoxazol-4-yl)-N-(4-(phenylsulfonyl)phenyl) acrylamide]
70 | COCCNS(=O)(=O)c1ccc(NC(=O)/C(C#N)=C(\O)c2cnoc2C)cc1 [Example 29, (Z)-2-cyano-3-hydroxy-N-(4-(N-(2-methoxyethyl)sulfamoyl)phenyl)-3-(5-methylisoxazol-4-yl)acrylamide]
40 | COCCNS(=O)(=O)c1cnc(NC(=O)/C(C#N)=C(\O)c2cnoc2C)nc1 [Example 118, (Z)-2-cyano-3-hydroxy-N-(5-(N-(2-methoxy-ethyl)sulfamoyl)pyrimidin-2-yl)-3-(5-methylisoxazol-4-yl)acrylamide]
1740 | Cc1oncc1/C(O)=C(\C#N)C(=O)Nc1cccc(Oc2ccccc2)c1 [Example 52, (Z)-2-cyano-3-hydroxy-3-(5-methylisoxazol-4-yl)-N-(3-phenoxyphenyl)acrylamide]
3460 | Cc1oncc1/C(O)=C(\C#N)C(=O)Nc1ccc(Oc2ccc(Cl)cc2)cc1 [Example 63, (Z)-N-(4-(4-chlorophenoxy)phenyl)-2-cyano-3-hydroxy-3-(5-methylisoxazol-4-yl)acrylamide]
1020 | Cc1oncc1/C(O)=C(\C#N)C(=O)Nc1ccc(Oc2ccccc2)cn1 [Example 83, (Z)-2-cyano-3-hydroxy-3-(5-methylisoxazol-4-yl)-N-(5-phenoxypyridin-2-yl)acrylamide]
420 | Cc1oncc1/C(O)=C(\C#N)C(=O)Nc1ccc(C(=O)Nc2ccccc2)cc1 [Example 67, (Z)-4-(2-cyano-3-hydroxy-3-(5-methylisoxazol-4-yl)acrylamido)-N-phenylbenzamide]
1120 | Cc1oncc1/C(O)=C(\C#N)C(=O)Nc1ccc(Cl)cc1 [Example 20, (Z)-N-(4-chlorophenyl)-2-cyano-3-hydroxy-3-(5-methylisoxazol-4-yl)acrylamide]
1290 | Cc1oncc1/C(O)=C(\C#N)C(=O)Nc1ccc(OC(F)(F)F)cc1 [Example 11, (Z)-2-cyano-3-hydroxy-3-(5-methylisoxazol-4-yl)-N-(4-(trifluoromethoxy)phenyl) acrylamide]
380 | Cc1oncc1/C(O)=C(\C#N)C(=O)Nc1ccc(S(=O)(=O)c2ccc(C#N)cc2)cc1 [Example 121, (Z)-2-Cyano-N-(4-((4-cyanophenyl)sulfonyl)phenyl)-3-hydroxy-3-(5-methylisoxazol-4-yl)acrylamide]
1440 | Cc1oncc1/C(O)=C(\C#N)C(=O)Nc1ccc(-n2cccc2)cc1 [Example 21, (Z)-N-(4-(1H-pyrrol-1-yl)phenyl)-2-cyano-3-hydroxy-3-(5-methylisoxazol-4-yl)acrylamide]
210 | Cc1nnc(NS(=O)(=O)c2ccc(NC(=O)/C(C#N)=C(\O)c3cnoc3C)cc2)s1 [Example 43, (Z)-2-cyano-3-hydroxy-3-(5-methylisoxazol-4-yl)-N-[4-[(5-methyl-1,3,4-thiadiazol-2-yl)sulfamoyl]phenyl]prop-2-enamide]
3110 | Cc1oncc1/C(O)=C(\C#N)C(=O)Nc1ccc(C(C)(C)c2ccccc2)cc1 [Example 104, (Z)-2-cyano-3-hydroxy-3-(5-methylisoxazol-4-yl)-N-(4-(2-phenylpropan-2-yl)phenyl)acrylamide]
